Values joined by “and” are separate entries in the source; they are usually repeats but may differ in a detail not shown here. Equal values may be shown once.
Tested on: WM3248 melanoma cells, 486 antibodies
Assay: Reverse phase protein arrays (RPPA)
Assay type: cell-based, Human
From the text: Pellets were snap frozen in liquid nitrogen and shipped to MD Anderson Cancer Center core RPPA facility for RPPA analysis (Table S5). Three biological replicates for each sample were generated.
Nomenclatures on the RPPA heatmaps: name_of_antibody.species_of_antibody.status_of_antibody. V - antibody validated; C - validation of antibody in progress; Q - antibody nonspecific; E – under evaluation; antibodies raised in M - mouse, G - goat, R - rabbit, or T - rat.

## CN(C)c1cccc(Nc2cc(-c3ccccc3)nc(C3CCNCC3)n2)c1 [ARN22089, N1,N1-dimethyl-N3-(6-phenyl-2-(piperidin-4-yl)pyrimidin-4-yl)benzene-1,3-diamine]
Norm_5 Average
  Caspase.8.cleaved.R.C normalized signal: 0.982
  Caveolin.1.R.V normalized signal: 0.855
  Cdc6.R.V normalized signal: 0.979
  Cdc42.R.C normalized signal: 1.009
  Chk1.M.C normalized signal: 0.909
  Chk2.M.V normalized signal: 0.853
  Chk2_pT68.R.C normalized signal: 1.060
  Claudin.7.R.V normalized signal: 0.926
  Collagen.VI.R.V normalized signal: 1.116
  Complex.II.Subunit.M.V normalized signal: 0.975
  Cox2.R.C normalized signal: 1.135
  Cox.IV.R.V normalized signal: 1.022
  CtIP.R.V normalized signal: 0.975
  Cyclin.B1.R.V normalized signal: 0.972
  Cyclin.D3.M.V normalized signal: 0.904
  Cyclin.E1.R.V normalized signal: 0.936
  DAPK1_pS308.M.C normalized signal: 1.256
  DDB.1.R.V normalized signal: 1.059
  DDR1_pY513.R.C normalized signal: 0.981
  DM.K9.Histone.H3.M.V normalized signal: 0.933
  DNA.Ligase.IV.R.C normalized signal: 1.034
  DNA_POLG.R.V normalized signal: 0.987
  c.Jun_pS73.R.V normalized signal: 0.785
  c.Met_pY1234_Y1235.R.V normalized signal: 1.005
  c.Myc.R.C normalized signal: 1.002
  cdc2_pY15.R.C normalized signal: 1.020
  cdc25C.R.V normalized signal: 0.901
Norm_5 replicates
  C.Raf.R.C normalized signal: 0.928 and 0.922 and 1.015
  C.Raf_pS338.R.V normalized signal: 1.100 and 1.059 and 1.133
  CA9.R.C normalized signal: 0.890 and 0.944 and 0.999
  CD2.M.C normalized signal: 0.910 and 0.933 and 1.035
  CD4.R.V normalized signal: 1.047 and 1.004 and 1.101
  CD5.M.C normalized signal: 0.985 and 1.051
  CD20.R.C normalized signal: 0.992 and 1.004 and 0.765
  CD26.R.V normalized signal: 0.918 and 1.107 and 0.927
  CD29.M.V normalized signal: 0.891 and 0.950 and 1.049
  CD31.M.V normalized signal: 0.904 and 0.900 and 1.048
  CD38.R.C normalized signal: 0.928
  CD44.R.C normalized signal: 0.917 and 1.058 and 0.855
  CD45.M.V normalized signal: 0.930 and 1.021
  CD49b.M.V normalized signal: 0.968 (2×) and 1.000
  CD68.M.C normalized signal: 0.960 and 0.996 and 0.977
  CD74.M.V normalized signal: 0.856 and 0.898 and 1.027
  CD134.R.V normalized signal: 0.925 and 0.944
  CD171.M.V normalized signal: 0.619 and 0.917 and 0.812
  CDK1_pT14.R.C normalized signal: 0.861 and 1.206
  CDK9.R.V normalized signal: 0.898 and 0.959 and 1.009
  CDKN2A.R.C normalized signal: 0.913 and 0.846 and 1.064
  CDT1.R.V normalized signal: 0.876 and 0.937
  CENP.A.R.V normalized signal: 0.837 and 1.027
  CHD1L.R.V normalized signal: 0.984 and 0.980 and 1.062
  CIITA.R.C normalized signal: 0.906 and 1.032 and 0.908
  COG3.R.V normalized signal: 1.065 and 1.046 and 1.027
  CRABP1.R.C normalized signal: 0.859 and 0.948
  CRABP2.R.V normalized signal: 0.835 and 0.922
  CREB_pS133.R.C normalized signal: 0.973 and 1.049
  CSK.R.C normalized signal: 0.899 and 0.615
  Calnexin.R.V normalized signal: 0.886 and 0.995 and 1.007
  Caspase.3.cleaved.R.C normalized signal: 1.021 and 1.056
  Caspase.7.cleaved..R.C normalized signal: 0.975 and 1.120
  Caspase.8.M.Q normalized signal: 0.995 and 1.011
  Caspase.8.cleaved.R.C normalized signal: 0.959 and 0.968 and 1.018
  Caveolin.1.R.V normalized signal: 0.695 and 1.083 and 0.788
  Cdc6.R.V normalized signal: 1.013 and 0.837
  Cdc42.R.C normalized signal: 0.983 and 0.959
  Chk1.M.C normalized signal: 0.847 and 0.901 and 0.979
  Chk1_pS296.R.V normalized signal: 1.011 and 0.821 and 1.014
  Chk1_pS345.R.C normalized signal: 1.085 and 0.937
  Chk2.M.V normalized signal: 0.877 and 0.935 and 0.746
  Chk2_pT68.R.C normalized signal: 1.018 and 1.050 and 1.112
  Claudin.7.R.V normalized signal: 0.960 and 0.997 and 0.822
  Collagen.VI.R.V normalized signal: 1.125 and 1.077 and 1.148
  Complex.II.Subunit.M.V normalized signal: 0.952 and 1.023
  Connexin.43.R.C normalized signal: 1.236 and 0.956
  Coup.TFII.R.C normalized signal: 1.082 and 1.017
  Cox2.R.C normalized signal: 1.108 and 1.155 and 1.142
  Cox.IV.R.V normalized signal: 1.004 and 1.021
  Creb.R.C normalized signal: 1.017
  CtIP.R.V normalized signal: 1.022 and 0.990 and 0.914
  Cyclin.B1.R.V normalized signal: 0.618 and 1.059 and 1.239
  Cyclin.D1.R.C normalized signal: 0.917 and 1.018
  Cyclin.D3.M.V normalized signal: 0.934 and 0.919 and 0.861
  Cyclin.E1.R.V normalized signal: 0.930 and 0.904 and 0.974
  Cyclophilin.F.M.V normalized signal: 0.842 and 0.856
  D.a.Tubulin.R.V normalized signal: 1.019 and 1.128
  DAPK1_pS308.M.C normalized signal: 1.353 and 1.627 and 0.788
  DAPK2.R.C normalized signal: 1.191 and 1.026
  DDB.1.R.V normalized signal: 1.062 and 0.816 and 1.300
  DDR1.R.V normalized signal: 0.866 and 0.933 and 1.046
  DDR1_pY513.R.C normalized signal: 0.890 and 1.005 and 1.047
  DJ1.R.V normalized signal: 1.019 and 1.054
  DM.Histone.H3.R.V normalized signal: 0.978 and 1.119 and 1.017
  DM.K9.Histone.H3.M.V normalized signal: 0.882 and 0.936 and 0.982
  DNA.Ligase.IV.R.C normalized signal: 1.083 and 0.953
  DNA_POLG.R.V normalized signal: 1.009 and 1.004
  c.Jun_pS73.R.V normalized signal: 0.798 and 0.640 and 0.915
  c.Kit.R.V normalized signal: 1.128 and 0.954
  c.Met_pY1234_Y1235.R.V normalized signal: 0.983 and 1.008 and 1.024
  c.Myc.R.C normalized signal: 0.935 and 1.002
  cGAS.R.V normalized signal: 0.859 and 0.966 and 1.027
  cdc2_pY15.R.C normalized signal: 1.026 and 1.124
  cdc25C.R.V normalized signal: 0.919 and 0.928 and 0.857
Norm_10, normalized to Norm_0
  MYH11.R.C Average: 1.438
  Myosin.IIa.R.C Average: 1.143
  Myosin.IIa_pS1943.R.V Average: 1.250
  Myt1.R.C Average: 0.974
  N.Cadherin.R.V Average: 1.013
  N.Ras.M.V Average: 0.937
  NAPSIN.A.R.C Average: 1.005
  NDRG1_pT346.R.V Average: 1.345
  NDUFB4.R.V Average: 1.030
  NRF2.R.C Average: 0.980
  Notch1.R.V Average: 0.957
  Notch1.cleaved.R.V Average: 0.977
  Notch3.R.C Average: 1.054
  Oct.4.R.C Average: 1.008
  P.Cadherin.R.C Average: 1.101
  PAI.1.M.V Average: 0.931
  PAICS.R.C Average: 0.957
  PAK1.R.V Average: 0.905
  PAK4.R.V Average: 1.019
  PAK_pS474_S602_S560.R.V Average: 1.098
  PAK_pT423_T402.R.C Average: 1.015
  PAR.R.C Average: 1.104
  PARG.R.C Average: 1.019
  PARP.R.V Average: 1.149
  PAX6.R.V Average: 0.956
  PAX8.R.C Average: 1.011
  PCNA.M.C Average: 0.988
  PD.1.R.V Average: 0.998
  PD.L1.R.C Average: 0.960
  PDH.M.V Average: 0.958
  PDK1.R.V Average: 1.058
  PDK1_pS241.R.V Average: 0.934
  PEA.15.R.V Average: 1.020
  PEA.15_pS116.R.V Average: 0.996
  PERK.R.V Average: 1.061
  PHGDH.R.C Average: 0.964
  PHLPP.R.V Average: 1.190
  PI3K.p85.R.C Average: 1.002
  PI3K.p110.a.R.C Average: 0.864
  PI3K.p110.b.M.C Average: 0.990
  PKA.a.R.V Average: 0.941
  PKC.a.b.II_pT638_T641.R.V Average: 0.894
  PKC.b.II_pS660.R.V Average: 0.986
  PKCa.R.V Average: 1.017
  PKM2.R.C Average: 1.046
  PLC.gamma1.R.V Average: 1.192
  PLC.gamma1_pS1248.R.V Average: 1.153
  PLC.gamma2_pY759.R.V Average: 1.003
  PLK1.R.C Average: 0.886
  PMS2.R.V Average: 1.014
  PR.R.V Average: 0.988
  PRAS40.M.C Average: 1.046
  PRAS40_pT246.R.V Average: 1.016
  PRC1_pT481.R.C Average: 1.014
  Patched.R.C Average: 0.952
  Paxillin.R.C Average: 0.862
  Pdcd4.R.C Average: 0.987
  Porin.M.V Average: 1.053
  p21.R.C Average: 0.934
  p27_pT157.R.C Average: 1.162
  p27_pT198.R.V Average: 1.113
